Laboratory results as given in US20260125387A1, “(R)-N-ETHYL-5-FLUORO-N-ISOPROPYL-2-((5-(2-(6-((2-METHOXYETHYL)(METHYL)AMINO)-2-METHYLHEXAN-3-YL)-2,6-DIAZASPIRO[3.4]OCTAN-6-YL)-1,2,4-TRIAZIN-6-YL)OXY)BENZAMIDE BESYLATE SALT” (Janssen Pharmaceutica NV, priority 2021, published 2026).
Counter-ions that a name gives are not always drawn.

What was measured:
MOLM-14 cells = assay: Proliferation assay (spheroid, day 8 confluence), MOLM-14; type: cell-based; settings: Homo sapiens, 8 days, read-out: spheroid assay_OneTime MOLM-14 IC50
[1] = Stability experiments under stress conditions (UHPLC purity, XRD); type: physicochemical; settings: for XRD after stress: Reference Crystalline, form A
KO-52 cells = assay: Proliferation assay (spheroid, day 8 confluence), KO-52 control cell line; type: cell-based; settings: Homo sapiens; 8 days; read-out: spheroid assay_OneTime KO-52 IC50
Protocol: The anti-proliferative effect of menin/MLL protein/protein interaction inhibitor test compounds was assessed in human leukemia cell lines. The cell line MOLM-14 harbors a MLL translocation and expresses the MLL fusion protein MLL-AF9, respectively, as well as the wildtype protein from the second allele. OCI-AML3 cells that carry the NPM1c gene mutation were also tested. […] KO-52 was used as a control cell line containing two MLL (KMT2A) wildtype alleles in order to exclude compounds that display general cytotoxic effects.
KO-52 and OCI-AML3 cell lines were propagated in alpha-MEM (Sigma Aldrich) supplemented with 20% heat-inactivated fetal bovine serum (HyClone), 2 mM L-glutamine (Sigma Aldrich) and 50 μg/ml gentamycin (Gibco).
In order to assess the anti-proliferative effects, 200 MOLM-14 cells, 200 OCI-AML3 cells or 300 KO-52 cells were seeded in 200 μl media per well in 96-well round bottom, ultra-low attachment plates (Costar, catalogue number 7007). […] Spheroid like growth was measured in real-time by live-cell imaging (IncuCyteZOOM, Essenbio, 4× objective) acquiring images at day 8. Confluence (%) as a measure of spheroid size was determined using an integrated analysis tool.
In order to determine the effect of the test compounds over time, the confluence in each well as a measure of spheroid size, was calculated. […]

[2] = system: human pluripotent stem cell-derived cardiomyocytes (iCell Cardiomyocytes2); assay: Ca2+-fluorescence assay in hSC-derived cardiomyocytes (CTCM human), hazard scoring; type: cell-based; design: key to Hazard scoring, Color @ 0.1 μM / Hazard scoring, Color @ 0.2 μM / Hazard scoring, Color @ 0.5 μM / Hazard scoring, Color @ 1 μM / Hazard scoring, Color @ 2.5 μM / Hazard scoring, Color @ 5 μM / Hazard scoring, Color @ 0.3 μM / Hazard scoring, Color @ 3 μM / Hazard scoring, Color @ 10 μM: Green: No concern; Yellow: Low concern; Red: High concern; Black: Very high concern due to arrhythmic events
Protocol: 7) Cardio-Electrophysiological Effects of the Testing Compounds in Synchronously Beating Human Pluripotent Stem Cell-Derived Cardiomyocytes (hSC-CMs) Using a Ca^2+-Fluorescence Assay (CTCM human)
Compounds were tested in the 96-well plates.
Compounds were tested at 0.1 μM, 0.2 μM, 0.5 μM, 1 μM, 2.5 μM and 5 μM (n=4 per dose) on Cor.4U®-Cardiomyocytes or on iCell® Cardiomyocytes2.
Alternatively, compounds were tested at 0.1 μM, 0.3 μM; 1 μM, 3 μM, 10 μM and 30 μM (n=4 per dose) mostly on iCell® Cardiomyocytes2.
Vehicle control: Dimethylsulfoxide (DMSO). The solutions of the compound in DMSO or its solvent (final concentration of 0.1% DMSO; n=8).
Tested compounds were dissolved in DMSO at 1000-fold the intended concentrations. A compound “mother-plate” was made, containing the test compounds and positive and negative controls at 1000-fold the final concentrations. At the experiment day, these stock solutions were diluted with Tyrode (Sigma), supplemented with 10 mM HEPES (Gibco), to 2-fold the intended concentration (in round bottom compound plates). Final DMSO concentration in test solutions and vehicle control was 0.1%.
hSC-CMs (Cor.4U® Cardiomyocytes) were obtained from CDI (Ncardia, Germany). Cells are pre-plated and seeded in fibronectin-coated 96-well plates at a density suited to form a monolayer and maintained in culture in a stage incubator (37° C., 5% CO2), according to the instructions of the cell provider.
Second line hSC derived cardiomyocyte called iCell® Cardiomyocytes2 were purchased from FUJIFILM Cellular Dynamics (USA). The experiments with test drugs are carried out 5 to 7 days after plating the cells onto the plate to have a living, beating monolayer of hiPSC-derived cardiomyocytes. The beating monolayer in 96-well-plates are normally taken from 2 Vials of frozen iCell® Cardiomyocytes2 (≈5 million cells/vial), which will be plated onto three 96-well plates (≈50K/well).
At least one hour before the start of the experiments the normal cell medium was replaced with Tyrode solution with Calcium dye (see below).
Cal 520 dye (AAT Bioquest) was dissolved in 11 ml of Tyrode supplemented with 10 mM HEPES and warmed up to 37 C before adding to the cells.
35 μl cell culture medium was removed from each well and replaced with 35 μl of pre-warmed Cal 520 dye solution and cell plate was incubated for 45 min at 37° C./5% CO2. Cells were incubated for 5 min at 37° C.
Spontaneous electrical activity is recorded, using Cal520™ (AAT Bioquest) calcium fluorescence-dye signaling. This dye integrates the total intracellular calcium activity over the whole well. A bottle of Cal520 dye (50 μg, MW: 1103/mol) is dissolved with 50 μl DMSO as a stock solution of 0.9 mM. 50 μL of the stock solution of the dye was added to 10 ml Tryodes solution to have dye concentration of 4.5 μM. Subsequently, 35 μl of this dye solution was added into each well, to have a final dye concentration of 1.58 μM. The current dye protocol on this CTCM human assay was established recently (Ivan Kopljar et al, Journal of Pharmacological and toxicological methods 2018. 91: 80-86; Lu et al., Tox Sci 2019. 170 (2): 345-356).
Fluorescent signals (Ca^2+ transient morphology) were measured using the Functional Drug Screen System (FDSS/pCell; Hamamatsu, Japan) and the recordings were subsequently analyzed off-line, using appropriate software e.g. Notocord.
The cell plate was loaded into the FDSS/pCell for a test run: Ca^2+ transients were measured for 4 minutes to check for synchronous beating of the cardiomyocytes in each well. All 96 wells were measured simultaneously (sampling interval: 0.06 s, short exposure time: 10 ms; excitation wavelength 480 nm; emission wavelength 540 nm; FDSS/pCell warmed to 37° C.).
During the compound addition step, 100 μl of the respective double-concentrated test solutions was pipetted into each well simultaneously.
Data were analyzed off-line using appropriate software e.g. Notocord-Hem (version 4.3). […]

[3] = system: OCI-AML3 tumors (disseminated, IV); assay: Efficacy study in disseminated OCI-AML3 model (survival); type: in vivo, mouse; settings: vehicle control 38.5 days
Protocol: Doses were adjusted by individual body weight each day.
Female SCID beige mice (CB17.Cg-PrkdcscidLystbg-J/Crl/−) were used when they were approximately 6 to 8 weeks of age and weighed approximately 25 g. All animals could acclimate and recover from any shipping-related stress for a minimum of 7 days prior to experimental use. Autoclaved water and irradiated food were provided ad libitum, and the animals were maintained on a 12 hour light and dark cycle. Cages, bedding, and water bottles were autoclaved before use and changed weekly. The tissue culture and cell injection reagents are summarized below in Table 14.
Human AML cell line OCI-AML3 was cultured at 37° C., 5% CO2 in the indicated complete culture media (MEM Alpha+20% HI—FBS (Heat-Inactivated Fetal Bovine Serum)+2 mM L-glutamine+50 ug/ml Gentamycin). […]
Animals were monitored daily for clinical signs related to either compound toxicity or tumor burden (i.e., hind limb paralysis, lethargy, etc.).
Median survival was determined utilizing Kaplan-Meier survival analysis. […]
Statistical significance for body weights was evaluated as described above. Statistical significance was evaluated for Kaplan-Meier survival plots comparing therapeutic treatment group vs. appropriate vehicle-treated control using log-rank (Mantel-Cox) test in R software version 3.4.2. […]

[4] = iCell Cardiomyocytes2, 30 min incubation
[5] = efficacious dose in mouse xenograft models of 30 mpk, (mouse, human)

## CCN(C(=O)c1cc(F)ccc1Oc1nncnc1N1CCC2(C1)CN([C@H](CCCN(C)CCOC)C(C)C)C2)C(C)C [Compound A4, (R)—N-ethyl-5-fluoro-N-isopropyl-2-((5-(2-(6-((2-methoxyethyl)(methyl)amino)-2-methylhexan-3-yl)-2,6-diazaspiro[3.4]octan-6-yl)-1,2,4-triazin-6-yl)oxy)benzamide bis-besylate salt hydrate]
MOLM-14 cells
  IC50: 8 nM
[1]; 50° C./10% RH, 7 days, Reference 99.65
  Besylate salt Purity after stress: 99.64
[1]; 50° C./10% RH, 14 days, Reference 99.65
  Besylate salt Purity after stress: 99.62
[1]; 50° C./30% RH, 21 days, Reference 99.21
  Besylate salt Purity after stress: 99.32
[1]; 50° C./30% RH, 21 days
  XRD after stress: Complies to ref
[1]; 50° C./50% RH, 7 days, Reference 99.65
  Besylate salt Purity after stress: 99.65
[1]; 50° C./50% RH, 14 days, Reference 99.65
  Besylate salt Purity after stress: 99.66
[1]; 50° C./75% RH, 21 days, Reference 99.21
  Besylate salt Purity after stress: 99.36
[1]; 50° C./75% RH, 21 days
  XRD after stress: Complies to ref
[1]; under evaluated stress conditions
  chemical and physical stability (UHPLC, XRD): chemically and physically stable
KO-52 cells
  IC50: 5440 nM

## CCN(C(=O)c1cc(F)ccc1Oc1nncnc1N1CCC2(C1)CN([C@H](CCCN(C)CCOC)C(C)C)C2)C(C)C [Compound A1, (R)—N-ethyl-5-fluoro-N-isopropyl-2-((5-(2-(6-((2-methoxyethyl)(methyl)-amino)-2-methylhexan-3-yl)-2,6-diazaspiro[3.4]octan-6-yl)-1,2,4-triazin-6-yl)oxy)-benzanilide 0.2 HCl·x H2O (x=2-3)]
[2]; [4]
  Hazard scoring, Color @ 0.1 μM: Green
  Hazard scoring, Color @ 1 μM: Green
[2]; 0.3 μM, iCell Cardiomyocytes2, 30 min incubation
  Hazard scoring, Color @ 0.3 μM: Green
[2]; 3 μM, iCell Cardiomyocytes2, 30 min incubation
  Hazard scoring, Color @ 3 μM: Green
[2]; 10 μM, iCell Cardiomyocytes2, 30 min incubation
  Hazard scoring, Color @ 10 μM: Green
[2]; 30 μM, iCell Cardiomyocytes2, 30 min incubation
  Hazard scoring, Color @ 30 μM: yellow
[2]; [5]
  Margin CTCM human 10 μM vs free Cmax: > 16
  Margin CTCM human 30 μM vs free Cmax: > 45

## CCN(C(=O)c1cc(F)ccc1Oc1nncnc1N1CCC2(C1)CN([C@H](CCCN(C)CCOC)C(C)C)C2)C(C)C [Compound A3, (R)—N-ethyl-5-fluoro-N-isopropyl-2-((5-(2-(6-((2-methoxyethyl) (methyl)amino)-2-methylhexan-3-yl)-2,6-diazaspiro[3.4]octan-6-yl)-1,2,4-triazin-6-yl)oxy) benzamide oxalate]
[2]; [4]
  Hazard scoring, Color @ 0.1 μM: Green
  Hazard scoring, Color @ 1 μM: Green
[2]; 0.2 μM, iCell Cardiomyocytes2, 30 min incubation
  Hazard scoring, Color @ 0.2 μM: Green
[2]; 0.5 μM, iCell Cardiomyocytes2, 30 min incubation
  Hazard scoring, Color @ 0.5 μM: Green
[2]; 2.5 μM, iCell Cardiomyocytes2, 30 min incubation
  Hazard scoring, Color @ 2.5 μM: Green
[2]; 5 μM, iCell Cardiomyocytes2, 30 min incubation
  Hazard scoring, Color @ 5 μM: Green
[3]; 30 mg/kg PO daily for 28 days
  median days of survival: 75.5 days
[3]; 50 mg/kg PO daily for 28 days
  median days of survival: 58.5 days
